These results are taken from patent US20160128990A1, “METHODS OF USING RIFAXIMIN IN POSITION EMISSION TOMOGRAPHY (PET) SCANS” (Salix Pharmaceuticals, Ltd, priority 2013, published 2016).

Each structure is given as a SMILES string.

Assay type in all cases: in vivo, human
Data set [1] is described as follows: Adverse events in the rifaximin-treated group (Example 1). The following applies: rifaximin 550 mg BID for two days, 30 patients. As to the method:
(§1) This example relates to a study to determine whether an oral antibiotic, rifaximin, administered prior to PET-CT scan can reduce physiologic FDG uptake in the intestinal tract. Thirty (30) patients scheduled for clinically-indicated PET-CT scans were enrolled to receive rifaximin 550 mg twice daily (BID) for two days prior to their scans. Each patient had their prior scheduled PET-CT used as control; that is, their prior PET-CT scan was evaluated as a pre-treatment baseline for intestinal FDG uptake (paired controls). The PET-CT scans of a randomly-selected cohort of 90 patients also scheduled for clinically-indicated PET-CT during the same time period were also used as controls (independent controls). All images were stripped of identifying data, and SUVMax (maximum-pixel-value standardized uptake value) and SUVAvg (average standardized uptake value) for all scans were measured by a radiologist blinded to treatment/control status and normalized to liver SUV, which was selected as the reference for normal tissue activity. A qualitative score of colonic uptake (0-4) was also assessed. Statistical analysis was performed by comparing mean SUV cecum/liver by paired t-test (pre & post) or unpaired t-test (treated & controls).

Data set [2] has as its system physiologic FDG uptake in the intestinal tract. Put plainly: PET-CT scan studies of intestinal FDG uptake with other rifaximin regimens (Examples 2-6). As to the method: Patients scheduled for clinically-indicated PET-CT scan are administered rifaximin 550 mg twice daily (BID) for five days prior to their scans. Each patient has their prior scheduled PET-CT used as control; that is, their prior PET-CT scan is evaluated as a pre-treatment baseline for intestinal FDG uptake (paired controls). The PET-CT scans of a randomly-selected cohort of patients also scheduled for clinically-indicated PET-CT during the same time period are used as independent controls. Cecal SUVMax (maximum-pixel-value standardized uptake value) and SUVAvg (average standardized uptake value) for all scans are measured by a radiologist blinded to treatment/control status and normalized to liver SUV, which is selected as the reference for normal tissue activity. A qualitative score of colonic uptake (0-4) is also assessed. Statistical analysis was performed by comparing mean SUV cecum/liver by paired t-test (pre & post) or unpaired t-test (treated & controls). The effect of rifaximin on a global measure of colonic SUV is also measured. Patients scheduled for clinically-indicated PET-CT scan are administered rifaximin 550 mg twice daily (BID) for seven days prior to their scans. Each patient has their prior scheduled PET-CT used as control; that is, their prior PET-CT scan is evaluated as a pre-treatment baseline for intestinal FDG uptake (paired controls). The PET-CT scans of a randomly-selected cohort of patients also scheduled for clinically-indicated PET-CT during the same time period are used as independent controls. Cecal SUVMax (maximum-pixel-value standardized uptake value) and SUVAvg (average standardized uptake value) for all scans are measured by a radiologist blinded to treatment/control status and normalized to liver SUV, which is selected as the reference for normal tissue activity. A qualitative score of colonic uptake (0-4) is also assessed. Statistical analysis was performed by comparing mean SUV cecum/liver by paired t-test (pre & post) or unpaired t-test (treated & controls). The effect of rifaximin on a global measure of colonic SUV is also measured. Patients scheduled for clinically-indicated PET-CT scan are administered rifaximin 550 mg twice daily (BID) for between 48 hours to five days prior to their scans. Each patient has their prior scheduled PET-CT used as control; that is, their prior PET-CT scan is evaluated as a pre-treatment baseline for intestinal FDG uptake (paired controls). […] Cecal SUVMax (maximum-pixel-value standardized uptake value) and SUVAvg (average standardized uptake value) for all scans are measured by a radiologist blinded to treatment/control status and normalized to liver SUV, which is selected as the reference for normal tissue activity. A qualitative score of colonic uptake (0-4) is also assessed. […] The effect of rifaximin on a global measure of colonic SUV is also measured. […] Each patient has their prior scheduled PET-CT used as control; that is, their prior PET-CT scan is evaluated as a pre-treatment baseline for intestinal FDG uptake (paired controls). […] Cecal SUVMax (maximum-pixel-value standardized uptake value) and SUVAvg (average standardized uptake value) for all scans are measured by a radiologist blinded to treatment/control status and normalized to liver SUV, which is selected as the reference for normal tissue activity. A qualitative score of colonic uptake (0-4) is also assessed. […]

Data set [3] shares this test system. In words: PET-CT scan study of intestinal FDG uptake after rifaximin pre-treatment (Example 1). As to the method: as §1

In the case of `CO[C@H]1/C=C/O[C@@]2(C)Oc3c(C)c(O)c4c(O)c(c5c(nc6cc(C)ccn65)c4c3C2=O)NC(=O)/C(C)=C\C=C\[C@H](C)[C@H](O)[C@@H](C)[C@@H](O)[C@@H](C)[C@H](OC(C)=O)[C@@H]1C` [rifaximin, (2S,16Z,18E,20S,21S,22R, 23R,24R,25S,26S,27S,28E)-5,6,21,23,25 Pentahydroxy-27-methoxy-2,4,11,16,20,22,24,26-octamethyl-2,7-(epoxypentadeca-(1,11,13)trienimino)benzofuro(4,5-e)pyrido(1,2,-a)benzimidazole-1,15(2H)-dione,25-acetate], the adverse events result in data set [1] is on record as “No adverse events were reported”. Besides, the “FDG uptake compared to pre-rifaximin scan” value is recorded as “significant reduction” in data set [2] (Example 2: 550 mg BID for five days prior to PET-CT scans); “significant reduction” in data set [2] (Example 3: 550 mg BID for seven days prior to PET-CT scans); “significant reduction” in data set [2] (Example 4: 550 mg BID for between 48 hours to 5 days prior to PET-CT scans); “significant reduction” in data set [2] (Example 5: 1100 mg per day for 48 hours to seven days prior to PET-CT scans); “significant reduction” in data set [2] (Example 6: solid dispersion with about 10 mg to about 100 mg rifaximin, once per day up to TID, 48 hours to seven days prior to PET-CT scans); “significant reduction” in data set [3] (rifaximin for 2 days prior to PET-CT scans). In data set [3], the “OR for overall colonic SUV score <1” value came to 3.8. Besides, the “patients with no major change in cecal SUVmax/liver ratio after rifaximin” value in data set [3] stood at 14%. The “scans with overall colonic SUV score <1” value in data set [3] is 53%. The “difference (reduction) in cecal SUVmax / FDG activity in the cecum between pre- and post-rifaximin images” value in data set [3] (550 mg BID for two days, paired pre-rifaximin scans, p=0.002) is 26%. For the same molecule, the “mean cecal SUVMax in patients whose SUVMax was >2 in their prior scan” value in data set [3] (550 mg, 48 h) is 3.4. Besides, the “cecal SUVmax levels in patients with high baseline levels” value in data set [3] (after 2 days of rifaximin pre-treatment) is reported as “significantly lower levels”. In data set [3] (patients (n=27) with cecal SUVmax/liver ratio >2 in pre-rifaximin scans, 2/27), the “patients with higher cecal SUVmax/liver ratio post-rifaximin” value was 7%. Besides, the “patients with lower cecal SUVmax/liver ratio after rifaximin” value in data set [3] (patients (n=27) with cecal SUVmax/liver ratio >2 in pre-rifaximin scans, 21/27, p=0.0005) is 78%. For the same molecule, the “patients with down-grading of FDG signal intensity (overall colonic SUV signal)” value in data set [3] (patients with an initial high cecal SUVMax, FIG. 4) came out at 80%. Moreover, the “Normalized (mean) cecal SUVAvg” value in data set [3] (post-rifaximin scan, 550 mg BID two days, 2.0 without rifaximin, p=0.02 paired t-test) is listed as 1.6. Further, the “Mean colon SUVmax” value in data set [3] (post-rifaximin scan, 550 mg BID two days, pre-rifaximin 4.0, p=0.7) was found to be 3.8. For the same molecule, the “distribution of overall colonic SUV grades” value in data set [3] (post-rifaximin scans, score 0-4 by blinded reader, FIG. 4) is reported as “left-shift in the distribution of colonic SUV grades from higher to lower grades”. The “mean cecal SUVMax, rifaximin-treated patients vs random control scans” value in data set [3] (random control scans mean 4.2, no significant difference, p=0.2 unpaired t-test) is 3.4. Moreover, the “qualitative score of whole colonic uptake (0-4), mean” value in data set [3] (rifaximin pre-treated group, reduced from 2.3, p=0.07) is 1.8. Further, in data set [3] (with rifaximin compared to without rifaximin, FIG. 4), the “overall percentage of patients with grade of colonic FDG intensity >1” value is on record as “lower”.
